Experimental data reported in paper PMC2254147, “Novel Triazine JPC-2067-B Inhibits Toxoplasma gondii In Vitro and In Vivo” (PLoS Neglected Tropical Diseases, 2008).
Entries after “also recorded” stand apart in the source; their conditions may differ. Like-named read-outs stand apart in the source and are kept apart here.

How the values were obtained:
[1] = system: Tachyzoites of the RH strain of T. gondii; experiment: T. gondii tachyzoite growth in human foreskin fibroblasts, 3H uracil uptake and microscopy; type: cell-based; details: Toxoplasma gondii, Fibroblast, RH strain tachyzoites in HFF, 3H uracil uptake after four days in culture
Experimental: Tachyzoites of the RH strain of T. gondii were passaged in human foreskin fibroblasts (HFF). They were used to infect fibroblasts to determine antimicrobial effects of candidate compounds. Outcome was assessed with microscopy and uracil uptake after four days in culture as described,[12],[13]. Briefly, for testing of inhibitors in vitro against T. gondii tachyzoites, four-day old confluent cultures of human foreskin fibroblasts (HFF) were infected with 10^3 tachyzoites and cultured for 1 hour to allow parasite invasion. Inhibitor was added and cells cultured for 3 days. They were supplemented with ^3H uracil and incubation extended for a further day, whereupon uracil incorporation into cells and thus parasite growth were assessed by liquid scintillation counting,[12],[13]. Studies were performed with inhibitors as described in [8],[12],[13].
For in vitro studies, a stock solution of JPC-2067-B was initially dissolved in 100% dimethyl sulfoxide (DMSO) and then diluted in complete tissue culture medium (IMDM-C) [IMDM with NaHCO3 and 25 mM Hepes (Cambrex Bio Science, Walkersville, MD), 10% fetal bovine serum (Gibco, Grand Island, N.Y.), 1× antibiotic-antimycotic solution (Cellgro, Mediatech), and 2 mM L-glutamine (Gibco). Working concentrations of JPC-2067-B were made using IMDM-C. Concentrations measured ranged from 10 to 100 nM. […]

T. gondii = experiment: Cidal test: cultures kept 52 days after removing compound on the 4th day; type: cell-based, Toxoplasma gondii; details: exposed 4 days, compound removed, cultured 52 days
Excerpt: In separate experiments, to determine whether JPC-2067-B would be cidal for T. gondii, cultures were maintained for 52 days after removing JPC-2067-B on the 4th day of culture.

[2] = system: T. gondii tachyzoites (RH strain); experiment: Murine toxoplasmosis, i.p. JPC-2067-B, peritoneal parasite burden; type: in vivo, mice (outbred Swiss Webster)
Experimental: Tachyzoites also were used to infect mice. Outbred Swiss Webster mice were bred in our specific pathogen free colony. When they were approximately 30 g, they received 10,000 RH strain tachyzoites intra-peritoneally (i.p.); numbers of parasites present in peritoneal fluid were counted four days later as described,[13]. Mice were maintained and utilized in accordance with IACUC and NIH guidelines and approvals. JPC-2067-B was administered parenterally. In initial studies, this was given 15 minutes after i.p. infection and then each day for four days(1.25 mg/kg/day). […] Control mice received 1% DMSO in PBS. For these parenterally treated mice, female mice received a dose of 1.25 mg/kg/day of JPC-2067-B, administered i.p. for the next 3 days. Control mice received an equivalent amount of DMSO (1%) in 1× PBS. In a separate experiment, DMSO at this concentration was shown not to modify subsequent parasite numbers when compared with i.p. inoculation of PBS. […] In contrast, infected control mice appeared ill, with ruffled fur and hunched posture. […] These differences between control and treated mice were statistically significant (p<0.05).

hDHFR = biological target: T1, hDHFR (Homo sapiens, UniProt P00374); experiment: Plate reader DHFR assay, recombinant human DHFR; type: biochemical
T1 construct: made in house
T1 sequence (P00374 1-187): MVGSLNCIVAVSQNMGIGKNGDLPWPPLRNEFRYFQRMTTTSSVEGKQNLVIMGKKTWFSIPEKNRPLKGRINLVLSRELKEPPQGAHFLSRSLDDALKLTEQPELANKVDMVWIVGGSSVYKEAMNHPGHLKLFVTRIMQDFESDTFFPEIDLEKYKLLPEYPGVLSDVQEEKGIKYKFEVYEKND
Excerpt: (§1) DHFR from T. gondii prepared as above was also directly compared to purified recombinant P. falciparum DHFR (pfDHFR) and purified recombinant human DHFR (hDHFR). The hDHFR was from pDFR plasmid. The enzyme was purified following ammonium sulfate precipitation, methotrexate:agarose affinity chromatography, and finally a Superdex 200 size exclusion column. The pfDHFR isolation methods were those reported previously,[44]. […] The same buffer as used in the other assays comparing T. gondii DHFR with DHFRs from rat liver P. carinii and M. avium intracellulare was used but the maximal activity, temperature, and length of observation were adjusted for assays on the specific plate reader. […] The reaction was setup at 23°C, the plate loaded, and the OD340 recorded at 20 second intervals for 10 minutes. The first 8 minutes were used to generate linear fit slopes in Excel. […] Results are expressed as the percent of control activity versus log concentration of inhibitor. Prism 5.0 was used to generate curves from 12 different concentrations of inhibitor using a non-linear fit method.

TgDHFR = biological target: T2, TgDHFR (Toxoplasma gondii, UniProt Q07422); experiment: biochemical; type: biochemical; details: 23°C
T2 construct: DHFR from T. gondii was isolated directly from RH strain T. gondii grown in culture; endogenous in cells; host or cells: RH strain T. gondii grown on CHO/dhfr- cells
T2 sequence (Q07422 1-610): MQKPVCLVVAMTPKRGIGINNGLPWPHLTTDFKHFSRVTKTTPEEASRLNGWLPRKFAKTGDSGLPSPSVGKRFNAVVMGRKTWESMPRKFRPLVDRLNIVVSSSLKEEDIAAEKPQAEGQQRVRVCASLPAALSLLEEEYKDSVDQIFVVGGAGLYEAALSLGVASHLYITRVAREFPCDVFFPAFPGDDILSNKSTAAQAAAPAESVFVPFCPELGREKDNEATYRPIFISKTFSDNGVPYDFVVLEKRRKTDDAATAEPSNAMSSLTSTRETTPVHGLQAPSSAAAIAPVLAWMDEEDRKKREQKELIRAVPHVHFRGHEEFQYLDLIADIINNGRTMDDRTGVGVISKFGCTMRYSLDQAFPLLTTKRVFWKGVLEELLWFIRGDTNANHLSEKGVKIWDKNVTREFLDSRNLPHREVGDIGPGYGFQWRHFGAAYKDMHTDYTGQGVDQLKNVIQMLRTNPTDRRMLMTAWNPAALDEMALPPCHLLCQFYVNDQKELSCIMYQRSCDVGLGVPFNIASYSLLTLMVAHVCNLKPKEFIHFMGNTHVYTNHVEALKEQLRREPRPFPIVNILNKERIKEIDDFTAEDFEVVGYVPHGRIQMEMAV
Excerpt: as §1

## CC1(C)N=C(N)N=C(N)N1OCCCOc1ccc(OC(F)(F)F)cc1Cl [JPC-2067-B, 4,6-diamino-1,2-dihydro-2,2-dimethyl-1-(3′(2-chloro-, 4-trifluoromethoxyphenoxy)propyloxy)-1,3,5-triazine]
[1]
  IC50: 20 nM
[1]; read-out: IC90, T. gondii tachyzoites in tissue culture
  IC90: 50 nM
T. gondii
  Plaques or growth of parasites after removal of compound (cidal effect): No plaques or Toxoplasma were seen throughout 52 days of culture; also recorded: No plaques or growth of parasites were detected
[2]; 1.25 mg/kg/day i.p., 10,000 RH tachyzoites i.p., fifth day after injection of parasites, p<0.05
  Intraperitoneal parasite numbers: reduced by two logs
[2]; 1.25 mg/kg/day i.p., 4 days after infection
  Appearance of treated mice: sleek and active
hDHFR; recombinant, 23°C, (95% Confidence Intervals), read-out: hDHFR IC50
  IC50: 148 nM
hDHFR; text to Figure 5 and Table 2, read-out: IC50 for human DHFR
  IC50: 150 nM
TgDHFR; Tg lysate, (95% Confidence Intervals)
  IC50: 32 nM
TgDHFR; high throughput method
  Ratio of IC50 values hDHFR/tgDHFR: 4.6
